Test results as given in US20250296959A1, “B7-H3 TARGETING PEPTIDES AND CONSTRUCTS THEREOF” (Mariana Oncology Inc., priority 2024, published 2025).
pKd: −log10 of the molar value. Starred links: 1 amine or outer side, 2 acyl side, 3 side chain; linkers in the order of their positions; H or OH if unused. Positions of bridges follow the written chain, without caps; N, C: chain ends. Non-standard residues stand in square brackets, D forms with d. Residues, ends and D or L forms follow the SMILES beside them. Groups on a side chain read outwards from the residue. *: point of attachment. Ala(1-CH2CO2H-4-piperidyl) = N[C@@H](CC1CCN(CC(=O)O)CC1)C(=O)O; Phe(3-CH2NH2) = O=C([C@H](Cc1cccc(CN[*:3])c1)N[*:1])[*:2]; DOTA = O=C(O)CN1CCN(CC(=O)O)CCN(CC(=O)*)CCN(CC(=O)O)CC1; Phe(4-COOH) = N[C@@H](Cc1ccc(C(=O)O)cc1)C(=O)O; Trp(5-F) = N[C@@H](Cc1c[nH]c2ccc(F)cc12)C(=O)O; PEG8 = NCCOCCOCCOCCOCCOCCOCCOCCOCCC(=O)O; γGlu = O=C(O)[C@H](CCC(=O)[*:2])N[*:1]; 1Nal = N[C@@H](Cc1cccc2ccccc12)C(=O)O; Ala(4-THP) = N[C@@H](CC1CCOCC1)C(=O)O; Val(3-OH) = CC(C)(O)[C@H](N)C(=O)O; 4Pal = N[C@@H](Cc1ccncc1)C(=O)O; Cha = N[C@@H](CC1CCCCC1)C(=O)O; aThr = C[C@H](O)[C@H](N)C(=O)O; Tle = CC(C)(C)[C@H](N)C(=O)O; hLeu = CC(C)CC[C@H](N)C(=O)O; NMeS = CN[C@@H](CO)C(=O)O; Pip = O=C(O)[C@@H]1CCCCN1; hSer = N[C@@H](CCO)C(=O)O

What follows are molecules tested against T1, human 4lg B7-H3 (Homo sapiens, UniProt Q5ZPR3) (assay: Affinity determination by surface plasmon resonance (SPR) to 4Ig B7-H3). Settings: SPR KD—25° C., 4Ig B7-H3; 25° C. flow cell temperature.
T1 sequence (Q5ZPR3 29-534): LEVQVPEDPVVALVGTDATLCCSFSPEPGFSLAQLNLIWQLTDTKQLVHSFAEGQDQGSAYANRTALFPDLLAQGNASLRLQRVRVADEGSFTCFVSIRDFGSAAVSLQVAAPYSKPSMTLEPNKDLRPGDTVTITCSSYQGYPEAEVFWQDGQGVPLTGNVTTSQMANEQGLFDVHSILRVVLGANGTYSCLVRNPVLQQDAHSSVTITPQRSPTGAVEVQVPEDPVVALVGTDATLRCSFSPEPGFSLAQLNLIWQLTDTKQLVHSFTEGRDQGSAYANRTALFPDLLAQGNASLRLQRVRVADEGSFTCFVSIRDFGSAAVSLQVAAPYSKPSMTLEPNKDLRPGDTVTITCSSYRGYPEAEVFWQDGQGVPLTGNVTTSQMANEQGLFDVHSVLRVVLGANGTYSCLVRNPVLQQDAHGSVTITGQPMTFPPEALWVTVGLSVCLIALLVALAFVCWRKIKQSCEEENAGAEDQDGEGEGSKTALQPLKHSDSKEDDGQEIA

Question: How did the pKd turn out when `CC(=O)N[C@@H](CCC(C)C)C(=O)N[C@@H](Cc1ccc(O)cc1)C(=O)N[C@H]1CSSC[C@@H](C(=O)N[C@@H](Cc2c[nH]c3ccc(F)cc23)C(=O)N[C@@H](Cc2ccccc2)C(=O)N[C@H](C(=O)N[C@H](CCCCNC(=O)CN2CCN(CC(=O)O)CCN(CC(=O)O)CCN(CC(=O)O)CC2)C(N)=O)[C@@H](C)O)NC(=O)[C@H](Cc2ccc(O)cc2)NC(=O)[C@H](C(C)C)NC(=O)[C@H](CC(=O)O)NC(=O)[C@H]([C@H](C)O)NC(=O)[C@H](CCCCN)NC(=O)CNC(=O)[C@H](C(C)C)NC1=O` [compound 178, Ac-hLeu-Y-C-V-G-K-alloThr-D-V-Y-C-5FW-F-Thr-dLys(DOTA)-CONH2] (Ac-[hLeu]YCVGK[aThr]DVYC[Trp(5-F)]FT[dK](DOTA)-NH2; disulfide 3-11) was run?
Answer: 8.00 to 9.00

Question: `CC(=O)N[C@@H](CCC(C)C)C(=O)N[C@@H](Cc1ccc(O)cc1)C(=O)N[C@H]1CSSC[C@@H](C(=O)N[C@@H](Cc2c[nH]c3ccc(F)cc23)C(=O)N[C@@H](Cc2ccccc2)C(=O)N2CCC[C@H]2C(=O)N[C@H](CCCCNC(=O)CN2CCN(CC(=O)O)CCN(CC(=O)O)CCN(CC(=O)O)CC2)C(=O)O)NC(=O)[C@H](Cc2ccc(O)cc2)NC(=O)[C@H](C(C)C)NC(=O)[C@H](CC(=O)O)NC(=O)[C@H](CC2CCOCC2)NC(=O)[C@H](CCO)NC(=O)CNC(=O)[C@H](C(C)(C)C)NC1=O` [compound 311, Ac-hLeu-Y-C-Tbg-G-hSer-ThpA-D-V-Y-C-5FW-F-Pro-dLys(DOTA)-COOH] (Ac-[hLeu]YC[Tle]G[hSer][Ala(4-THP)]DVYC[Trp(5-F)]FP[dK](DOTA)-OH; disulfide 3-11) was tested. Which pKd did it give?
Answer: 8.00 to 9.00

Question: `CC(=O)N[C@@H](CCC(C)C)C(=O)N[C@@H](Cc1ccc(O)cc1)C(=O)N[C@H]1CSSC[C@@H](C(=O)N[C@@H](Cc2cccc3ccccc23)C(=O)N[C@@H](Cc2ccccc2)C(=O)N2CCC[C@H]2C(N)=O)NC(=O)[C@H](Cc2ccc(O)cc2)NC(=O)[C@H](C(C)C)NC(=O)[C@H](CC(=O)O)NC(=O)[C@H](Cc2cccc(CNC(=O)CC[C@H](NC(=O)CC[C@H](NC(=O)CC[C@H](NC(=O)CN3CCN(CC(=O)O)CCN(CC(=O)O)CCN(CC(=O)O)CC3)C(=O)O)C(=O)O)C(=O)O)c2)NC(=O)[C@H](CCCCN)NC(=O)CNC(=O)[C@H](C(C)(C)C)NC1=O` [compound 258, Ac-hLeu-Y-C-Tbg-G-K-MAF(gE-gE-gE-DOTA)-D-V-Y-C-1Nal-F-Pro-CONH2] (Ac-[hLeu]YC[Tle]GK[Phe(3-CH2NH2)]([γGlu-γGlu-γGlu-DOTA])DVYC[1Nal]FP-NH2; disulfide 3-11) was tested. Which pKd did it give?
Answer: 8.00 to 9.00

Question: With `CC(=O)N[C@@H](CCC(C)C)C(=O)N[C@@H](Cc1ccc(O)cc1)C(=O)N[C@H]1CSSC[C@@H](C(=O)N[C@@H](Cc2cccc3ccccc23)C(=O)N[C@@H](Cc2ccccc2)C(=O)N(C)[C@@H](CO)C(=O)N[C@H](CCCCNC(=O)CN2CCN(CC(=O)O)CCN(CC(=O)O)CCN(CC(=O)O)CC2)C(N)=O)NC(=O)[C@H](CC2CCCCC2)NC(=O)[C@H](C(C)C)NC(=O)[C@H](CC(=O)O)NC(=O)[C@H](Cc2ccncc2)NC(=O)[C@H](CCCCN)NC(=O)CNC(=O)[C@H](C(C)(C)C)NC1=O` [compound 220, Ac-hLeu-Y-C-Tbg-G-K-4PyA-D-V-Cha-C-1Nal-F-NMeSer-dLys(DOTA)-CONH2] (Ac-[hLeu]YC[Tle]GK[4Pal]DV[Cha]C[1Nal]F[NMeS][dK](DOTA)-NH2; disulfide 3-11) as the molecule, how does the pKd read?
Answer: 7.00 to 8.00

Question: `COc1ccc(C[C@H](NC(=O)[C@H](CCC(C)C)NC(C)=O)C(=O)N[C@H]2CSSC[C@@H](C(=O)N[C@@H](Cc3c[nH]c4ccc(F)cc34)C(=O)N[C@@H](Cc3ccccc3)C(=O)N[C@H](C(=O)N[C@H](CCCCNC(=O)CN3CCN(CC(=O)O)CCN(CC(=O)O)CCN(CC(=O)O)CC3)C(N)=O)[C@@H](C)O)NC(=O)[C@H](Cc3ccc(O)cc3)NC(=O)[C@H](C(C)C)NC(=O)[C@H](CC(=O)O)NC(=O)[C@H](Cc3ccc(O)cc3)NC(=O)[C@H](CCCCN)NC(=O)CNC(=O)[C@H](C(C)C)NC2=O)cc1` [compound 193, Ac-hLeu-OMeTyr-C-V-G-K-Y-D-V-Y-C-5FW-F-Thr-dLys(DOTA)-CONH2] (Ac-[hLeu]Y(Me)CVGKYDVYC[Trp(5-F)]FT[dK](DOTA)-NH2; disulfide 3-11) was tested. Which pKd did it give?
Answer: 7.00 to 8.00

Question: How did the pKd turn out when `CC(=O)N[C@@H](CCC(C)C)C(=O)N[C@@H](Cc1ccc(O)cc1)C(=O)N[C@H]1CSSC[C@@H](C(=O)N[C@@H](Cc2cccc3ccccc23)C(=O)N[C@@H](Cc2ccccc2)C(=O)N2CCCC[C@H]2C(=O)O)NC(=O)[C@H](Cc2ccc(O)cc2)NC(=O)[C@H](C(C)C)NC(=O)[C@H](CC(=O)O)NC(=O)[C@H](Cc2ccncc2)NC(=O)[C@H](CCCCNC(=O)CN2CCN(CC(=O)O)CCN(CC(=O)O)CCN(CC(=O)O)CC2)NC(=O)CNC(=O)[C@H](C(C)(C)C)NC1=O` [compound 265, Ac-hLeu-Y-C-Tbg-G-Lys(DOTA)-4PyA-D-V-Y-C-1Nal-F-Pip acid-CONH2] (Ac-[hLeu]YC[Tle]GK(DOTA)[4Pal]DVYC[1Nal]F[Pip]-OH; disulfide 3-11) was run?
Answer: 7.00 to 8.00

Question: `CC(=O)N[C@@H](CCC(C)C)C(=O)N[C@@H](Cc1ccc(O)cc1)C(=O)N[C@H]1CSSC[C@@H](C(=O)N[C@@H](Cc2c[nH]c3ccccc23)C(=O)N[C@@H](Cc2ccccc2)C(=O)N[C@H](C(=O)N[C@H](CCCCNC(=O)CN2CCN(CC(=O)O)CCN(CC(=O)O)CCN(CC(=O)O)CC2)C(N)=O)[C@@H](C)O)NC(=O)[C@H](Cc2ccc(O)cc2)NC(=O)[C@H](C(C)C)NC(=O)[C@H](CC(=O)O)NC(=O)[C@H](Cc2ccc(O)cc2)NC(=O)[C@H](CCCCN)NC(=O)CNC(=O)[C@H]([C@H](C)O)NC1=O` [compound 120, Ac-hLeu-Y-C-alloThr-G-K-Y-D-V-Y-C-W-F-Thr-dLys(DOTA)-CONH2] (Ac-[hLeu]YC[aThr]GKYDVYCWFT[dK](DOTA)-NH2; disulfide 3-11) was tested. Which pKd did it give?
Answer: 7.00 to 8.00

Same assay, conditions: SPR KD—37° C., 4Ig B7-H3; 37° C. flow cell temperature

Question: With `CC(C)CC[C@H](NC(=O)CCOCCOCCOCCOCCOCCOCCOCCOCCNC(=O)CN1CCN(CC(=O)O)CCN(CC(=O)O)CCN(CC(=O)O)CC1)C(=O)N[C@@H](Cc1ccc(O)cc1)C(=O)N[C@H]1CSSC[C@@H](C(=O)N[C@@H](Cc2c[nH]c3ccc(F)cc23)C(=O)N[C@@H](Cc2ccccc2)C(=O)N[C@H](C(N)=O)C(C)(C)O)NC(=O)[C@H](Cc2ccc(O)cc2)NC(=O)[C@H](C(C)C)NC(=O)[C@H](CC(=O)O)NC(=O)[C@H](CC2CCOCC2)NC(=O)[C@H](CCCCN)NC(=O)CNC(=O)[C@H](C(C)(C)C)NC1=O` [Cpd #391, DOTA-PEG8-hLeu-Y-C-Tbg-G-K-ThpA-D-V-Y-C-5FW-F-hydroxyVal-CONH2] ({DOTA-PEG8}-[hLeu]YC[Tle]GK[Ala(4-THP)]DVYC[Trp(5-F)]F[Val(3-OH)]-NH2; disulfide 3-11) as the molecule, how does the pKd read?
Answer: 8.00 to 9.00

Question: How did the pKd turn out when `CC(=O)N[C@@H](CCC(C)C)C(=O)N[C@@H](Cc1ccc(O)cc1)C(=O)N[C@H]1CSSC[C@@H](C(=O)N[C@@H](Cc2c[nH]c3ccc(F)cc23)C(=O)N[C@@H](Cc2ccccc2)C(=O)N[C@H](C(=O)O)[C@@H](C)O)NC(=O)[C@H](Cc2ccc(O)cc2)NC(=O)[C@H](C(C)C)NC(=O)[C@H](CC(=O)O)NC(=O)[C@H](CC2CCOCC2)NC(=O)[C@H](CCCCNC(=O)CN2CCN(CC(=O)O)CCN(CC(=O)O)CCN(CC(=O)O)CC2)NC(=O)CNC(=O)[C@H](C(C)(C)C)NC1=O` [compound 328, Ac-hLeu-Y-C-Tbg-G-Lys(DOTA)-ThpA-D-V-Y-C-5FW-F-Thr-COOH] (Ac-[hLeu]YC[Tle]GK(DOTA)[Ala(4-THP)]DVYC[Trp(5-F)]FT-OH; disulfide 3-11) was run?
Answer: 7.00 to 8.00

Question: With `CC(=O)N[C@@H](CCC(C)C)C(=O)N[C@@H](Cc1ccc(O)cc1)C(=O)N[C@H]1CSSC[C@@H](C(=O)N[C@@H](Cc2c[nH]c3ccc(F)cc23)C(=O)N[C@@H](Cc2ccccc2)C(=O)N2CCC[C@H]2C(=O)N[C@H](CCCCNC(=O)CN2CCN(CC(=O)O)CCN(CC(=O)O)CCN(CC(=O)O)CC2)C(N)=O)NC(=O)[C@H](Cc2ccc(O)cc2)NC(=O)[C@H](C(C)C)NC(=O)[C@H](CC(=O)O)NC(=O)[C@H](Cc2ccc(C(=O)O)cc2)NC(=O)[C@H](CC2CCN(CC(=O)O)CC2)NC(=O)CNC(=O)[C@H](C(C)C)NC1=O` [compound 320, Ac-hLeu-Y-C-V-G-[Pip(CH2CO2H)Ala]-4COOHPhe-D-V-Y-C-5FW-F-Pro-dLys(DOTA)-CONH2] (Ac-[hLeu]YCVG[Ala(1-CH2CO2H-4-piperidyl)][Phe(4-COOH)]DVYC[Trp(5-F)]FP[dK](DOTA)-NH2; disulfide 3-11) as the molecule, how does the pKd read?
Answer: 8.00 to 9.00

Same assay, conditions: read-out: SPR KD—37° C.; 4Ig B7-H3; 37° C. flow cell temperature

Question: With `CC(=O)N[C@@H](CCC(C)C)C(=O)N[C@@H](Cc1ccc(O)cc1)C(=O)N[C@H]1CSSC[C@@H](C(=O)N[C@@H](Cc2c[nH]c3ccc(F)cc23)C(=O)N[C@@H](Cc2ccccc2)C(=O)N[C@H](C(=O)N[C@H](CCCCNC(=O)CN2CCN(CC(=O)O)CCN(CC(=O)O)CCN(CC(=O)O)CC2)C(=O)O)C(C)(C)O)NC(=O)[C@H](Cc2ccc(O)cc2)NC(=O)[C@H](C(C)C)NC(=O)[C@H](CC(=O)O)NC(=O)[C@H](CC2CCC(O)CC2)NC(=O)[C@H](CC2CCNCC2)NC(=O)CNC(=O)[C@H](C(C)(C)C)NC1=O` (single isomer, unassigned) [compound 480, Ac-hLeu-Y-C-Tbg-G-PipAla-4OHCha(pk2)-D-V-Y-C-5FW-F-hydroxyVal-dLys(DOTA)-COOH] as the molecule, how does the pKd read?
Answer: > 9.00
